This assay has as its system small (<30 μm) TG neurons from FRICT-ION mice. Put plainly: Whole-cell patch-clamp electrophysiology, TG neurons from FRICT-ION mice. It counts as cell-based, mouse. Particulars: 13 μM for one hour vs 0.1% DMSO. The method, then: The excitability of TG neurons is directly linked to the pathophysiology of trigeminal neuropathic pain. In order to determine the effect of LMK235 on TG neurons from FRICT-ION mice, whole-cell patch-clamp electrophysiological recordings were made from small (<30 μm) TG neurons in the presence of LMK235 (13 μM) or vehicle (0.1% DMSO). TG neurons were obtained from FRICT-ION mice at three weeks post injury or naïve mice. The TG neurons were treated for one hour in vitro with either LMK235 or vehicle control prior to recording (FIG. 7).
Neurons with a diameter of <30 μm were identified by infrared differential interference contrast (IR-DIC) imaging with a microscope connected to an Olympus digital camera. Current clamp recordings were performed using a Molecular Devices Multiclamp 700B (Scientifica, UK). Signals were filtered at 5 KHz, acquired at 50 KHz using a Molecular Devices 1550B converter (Scientifica, UK) and recorded using Clampex 11 software (Molecular Devices, Scientifica, UK). Electrodes were pulled with a Zeitz puller (Werner Zeitz, Martinsreid, Germany) from borosilicate thick glass (GC150F, Sutter Instruments). Electrode resistance was 5-8 MΩ. Bridge balance was applied to all recordings. Intracellular solution contained (in mM) 125 K-gluconate, 6 KCl, 10 HEPES, 0.1 EGTA, 2 Mg-ATP, pH 7.3 with KOH, and osmolarity of 290-310 mOsm. Artificial cerebrospinal fluid (aCSF) contained (in mM) 113 NaCl, 3 KCl, 25 NaHCO3, 1 NaH2PO4, 2 CaCl2), 2 MgCl2, and 11-glucose. For whole-cell current clamp recordings, to evaluate the basic input-output action potential frequency response to hyperpolarization and depolarization, DC current was injected from 0 pA to +200 pA in 10-pA increments for a duration of 500 milliseconds at the cell's intrinsic resting membrane potential. Data acquisition was sampled at 20 kHz and filtered at 2.4 kHz. Recordings with a series resistance greater than 20 MΩ were discarded, and series resistance was compensated to 70%. In response to a −100 pA hyperpolarizing pulse with 500 millisecond duration, voltage sag amplitude was measured. Sag ratio was calculated using the following equation as described previously (Fan et al., Front Cell Neurosci 2016 Mar. 24; 10:74):
where Vpeak is the maximum voltage deflection and Vss is the steady state voltage at the end of the hyperpolarizing pulse.
Male mice were euthanized three weeks after inducing the FRICT-ION model. The TG were dissected, minced, and dissociated in an enzymatic combination containing sterile, calcium-free, and magnesium-free HBSS (Cat #14170112, Gibco), papain suspension (32.7 U/mgP, Cat #LS003126; Worthington, Lakewood, NJ), L-Cysteine (Cat #C7352-25g, Sigma), and saturated bicarbonate (Cat #S5761-500g, Sigma) solution. […]
In general terms: Patch clamp records ionic current or voltage across a cell membrane.

The record followed here is US20250345295A1, “LMK235 COMPOSITIONS AND METHODS” (UNM Rainforest Innovations, priority 2024, published 2025).

Molecules are shown by their SMILES. Entries after “also recorded” stand apart in the source; their conditions may differ.

With `Cc1cc(C)cc(C(=O)NOCCCCCC(=O)NO)c1` [LMK235, N-[[6-(Hydroxyamino)-6-oxohexyl]oxy]-3,5-dimethyl-benzamide], the “distribution of high (>200 pA) vs low (<200 pA) threshold TG neurons” value is recorded as “higher proportion of high threshold (>200 pA) neurons”, the “resting membrane potential (RMP)” value was “not significantly altered; also recorded: no significant differences”, the rheobase entry is “not significantly altered; also recorded: no significant differences” and the sag ratio result is “significantly lower; also recorded: reduced”.
